Results: patent publication US9772337B2, “Compositions and methods for functional gylcomics” (Emory University, priority 2010, dated 2017)

Test system: anti-GD1a antibody
Experiment: BBG GSL-AOAB shotgun microarray binding assay with anti-GD1a antibody
Conditions: fractions printed at 10 μM on NHS-slides

binding of anti-GD1a antibody to BBG GSL-AOAB fractions: primarily bound
Substance: Neu5Acα2-3Galβ1-3GalNAcβ1-4(Neu5Acα2-3)Galβ1-4Glcβ1-R [GD1a-AOAB]
